Here are results for 25 compounds from paper PMC6471342, “Synthesis of Thymidine Phosphorylase Inhibitor Based on Quinoxaline Derivatives and Their Molecular Docking Study” (Molecules, 2019).

In the first test the target is T1, thymidine phosphorylase/PD-ECGF (E. coli) (Escherichia coli, UniProt P07650).
T1 construct: purchased
T1 sequence (P07650 whole entry): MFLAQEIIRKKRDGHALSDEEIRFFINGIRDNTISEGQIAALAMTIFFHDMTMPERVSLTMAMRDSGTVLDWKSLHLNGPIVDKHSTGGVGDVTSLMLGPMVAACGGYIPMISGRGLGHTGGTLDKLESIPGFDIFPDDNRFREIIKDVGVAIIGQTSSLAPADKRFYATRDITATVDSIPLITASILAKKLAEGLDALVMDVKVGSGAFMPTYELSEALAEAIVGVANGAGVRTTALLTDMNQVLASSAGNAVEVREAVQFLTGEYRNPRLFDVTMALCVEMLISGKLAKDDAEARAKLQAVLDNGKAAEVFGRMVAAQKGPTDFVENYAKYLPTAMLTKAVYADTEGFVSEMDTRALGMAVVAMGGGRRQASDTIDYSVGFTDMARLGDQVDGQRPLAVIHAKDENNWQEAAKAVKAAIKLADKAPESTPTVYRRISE
As to the kind of experiment: Thymidine phosphorylase inhibition assay (absorbance at 290 nm). The test is classed as biochemical. As to conditions: Table 1; triplicate; read-out: IC50 (mM ± SEM). Here is the method: Since human TP is not easy to obtain, we used commercially available recombinant E. coli TP. The primary sequence of TP is frequently preserved throughout evolution as mammalian TP is reported to share 39% sequence resemblance with the TP of E. coli. The mammalian enzyme also shared up to 70% resemblance with the active site residues, and three-dimensional structure of E. coli TP enzyme. The thymidine phosphorylase/PD-ECGF (E. coli) activity was determined by measuring the absorbance at 290 nm spectrophotometrically. The method was described in [50, 51]. In brief, the total reaction mixture of 200 µL contained 145 µL of potassium phosphate buffer (pH 7.4), 30 µL of enzyme (human and E. coli) at concentration 0.05 and 0.002 U, respectively, were incubated with 5 µL of test materials for 10 min at 25 °C in a microplate reader. After incubation, a pre-read at 290 nm was taken to deduce the absorbance of substrate particles. The substrate (20 µL, 1.5 mM), dissolved in potassium phosphate buffer, was immediately added to the plate and continuously read after 10, 20, and 30 min in a microplate reader (SpectraMax, Molecular Devices, CA, USA). All assays were performed in triplicate.
Reactions for above mentioned biological activities were carried out in triplicate. Results were then processed using SoftMax Pro 4.8 software (Molecular Devices, San Jose, CA, USA) and then by Microsoft Excel. The percent inhibition for above mentioned biological activities was calculated by following formula:Percent Inhibition = 100 − (ODtest compound/ODcontrol) × 100(1)
As a reminder, the IC50 is the concentration that gives 50% inhibition. For the compound `Oc1ccc(-c2csc3nnc(-c4cnc5ccccc5n4)n23)c(O)c1` [Compound 14, 4-(3-(quinoxalin-2-yl)thiazolo[2,3-c][1,2,4]triazol-5-yl)benzene-1,3-diol], the IC50 was determined as 0.0132 ± 0.0004 mM.
Still for that read-out and setting: as for `Oc1ccc(O)c(-c2csc3nnc(-c4cnc5ccccc5n4)n23)c1` [Compound 15, 2-(3-(quinoxalin-2-yl)thiazolo[2,3-c][1,2,4]triazol-5-yl)benzene-1,4-diol], the figure is 0.0152 ± 0.0005 mM; as for `Oc1ccc(-c2csc3nnc(-c4cnc5ccccc5n4)n23)cc1O` [Compound 16, 4-(3-(quinoxalin-2-yl)thiazolo[2,3-c][1,2,4]triazol-5-yl)benzene-1,2-diol], 0.0035 ± 0.0002 mM.
For the compound `COc1ccc(-c2csc3nnc(-c4cnc5ccccc5n4)n23)c(O)c1` [Compound 17, 5-methoxy-2-(3-(quinoxalin-2-yl)thiazolo[2,3-c][1,2,4]triazol-5-yl)phenol], the IC50 stood at 0.0242 ± 0.0007 mM.
On the same count and under the same terms, with `COc1ccc(-c2csc3nnc(-c4cnc5ccccc5n4)n23)cc1O` [Compound 18, 2-methoxy-5-(3-(quinoxalin-2-yl)thiazolo[2,3-c][1,2,4]triazol-5-yl)phenol] the figure was 0.0169 ± 0.0006 mM.
For `COc1ccc(O)c(-c2csc3nnc(-c4cnc5ccccc5n4)n23)c1` [Compound 21, 4-methoxy-2-(3-(quinoxalin-2-yl)thiazolo[2,3-c][1,2,4]triazol-5-yl)phenol], the IC50 amounted to 0.0262 ± 0.0005 mM.
`Oc1ccccc1-c1csc2nnc(-c3cnc4ccccc4n3)n12` [Compound 24, 2-(3-(quinoxalin-2-yl)thiazolo[2,3-c][1,2,4]triazol-5-yl)phenol]: the IC50 is 0.0131 ± 0.0003 mM.
The same measure, in the same setting: with `Oc1cccc(-c2csc3nnc(-c4cnc5ccccc5n4)n23)c1O` [Compound 25, 3-(3-(quinoxalin-2-yl)thiazolo[2,3-c][1,2,4]triazol-5-yl)benzene-1,2-diol] the figure was 0.0032 ± 0.0001 mM.

The test is the same for the next values; noted with them: Table 1; triplicate; read-out: IC50 (µM ± SEM).
In the case of `Fc1ccccc1-c1csc2nnc(-c3cnc4ccccc4n3)n12` [Compound 1, 5-(2-flourophenyl)-3(Quinoxalin-2yl)thiazolo[2,3-c][1,2,4]triazole], the IC50 is 0.0136 ± 0.0004 mM.
Same read-out and setting: as for `Fc1cccc(-c2csc3nnc(-c4cnc5ccccc5n4)n23)c1` [Compound 2, 5-(3-flourophenyl)-3(Quinoxalin-2yl)thiazolo[2,3-c][1,2,4]triazole], the figure is 0.0261 ± 0.0007 mM; as for `Fc1ccc(-c2csc3nnc(-c4cnc5ccccc5n4)n23)cc1` [Compound 3, 5-(4-flourophenyl)-3(Quinoxalin-2yl)thiazolo[2,3-c][1,2,4]triazole], 0.0181 ± 0.0005 mM; as for `Clc1ccccc1-c1csc2nnc(-c3cnc4ccccc4n3)n12` [Compound 4, 5-(2-chlorophenyl)-3(Quinoxalin-2yl)thiazolo[2,3-c][1,2,4]triazole], 0.0274 ± 0.0006 mM.
Still for that read-out and setting: with `Clc1cccc(-c2csc3nnc(-c4cnc5ccccc5n4)n23)c1` [Compound 5, 5-(3-chlorophenyl)-3(Quinoxalin-2yl)thiazolo[2,3-c][1,2,4]triazole] the figure was 0.0334 ± 0.0008 mM.
Still for that read-out and setting: with `Clc1ccc(-c2csc3nnc(-c4cnc5ccccc5n4)n23)cc1` [Compound 6, 5-(4-chlorophenyl)-3(Quinoxalin-2yl)thiazolo[2,3-c][1,2,4]triazole] the figure was 0.0244 ± 0.0006 mM.
With `O=[N+]([O-])c1ccccc1-c1csc2nnc(-c3cnc4ccccc4n3)n12` [Compound 7, 5-(2-nitrophenyl)-3(Quinoxalin-2yl)thiazolo[2,3-c][1,2,4]triazole], the half-maximal inhibitory concentration (IC50) was determined as 0.0347 ± 0.0008 mM.
Consider `O=[N+]([O-])c1ccc(-c2csc3nnc(-c4cnc5ccccc5n4)n23)cc1` [Compound 8, 5-(4-nitrophenyl)-3(Quinoxalin-2yl)thiazolo[2,3-c][1,2,4]triazole], for which the IC50 came out at 0.0475 ± 0.0009 mM.
On the same count and under the same terms, with `Cc1ccccc1-c1csc2nnc(-c3cnc4ccccc4n3)n12` [Compound 9, 3-(quinoxalin-2-yl)-5-o-tolylthiazolo[2,3-c][1,2,4]triazole] the figure was 0.0564 ± 0.0012 mM; with `Oc1cccc(-c2csc3nnc(-c4cnc5ccccc5n4)n23)c1` [Compound 12, 3-(3-(quinoxalin-2-yl)thiazolo[2,3-c][1,2,4]triazol-5-yl)phenol], 0.0332 ± 0.00075 mM.
With `Oc1ccc(-c2csc3nnc(-c4cnc5ccccc5n4)n23)cc1` [Compound 13, 4-(3-(quinoxalin-2-yl)thiazolo[2,3-c][1,2,4]triazol-5-yl)phenol], the IC50 came to 0.0183 ± 0.00055 mM.

Still in this test, the particulars now being: compared with standard 7-Deazaxanthine.
With `Fc1ccccc1-c1csc2nnc(-c3cnc4ccccc4n3)n12` [Compound 1, 5-(2-flourophenyl)-3(Quinoxalin-2yl)thiazolo[2,3-c][1,2,4]triazole], the “thymidine phosphorylase inhibition, result in words” value (shortened to “thymidine phosphorylase inhibition”) was “outstanding inhibition”.
Take `Fc1cccc(-c2csc3nnc(-c4cnc5ccccc5n4)n23)c1` [Compound 2, 5-(3-flourophenyl)-3(Quinoxalin-2yl)thiazolo[2,3-c][1,2,4]triazole]: the “thymidine phosphorylase inhibition” value is recorded as “outstanding inhibition”.
On to `Fc1ccc(-c2csc3nnc(-c4cnc5ccccc5n4)n23)cc1` [Compound 3, 5-(4-flourophenyl)-3(Quinoxalin-2yl)thiazolo[2,3-c][1,2,4]triazole], for which the “thymidine phosphorylase inhibition” value is “outstanding inhibition”.
The same measure, in the same setting: with `Clc1ccccc1-c1csc2nnc(-c3cnc4ccccc4n3)n12` [Compound 4, 5-(2-chlorophenyl)-3(Quinoxalin-2yl)thiazolo[2,3-c][1,2,4]triazole] the entry was “outstanding inhibition”.
In the case of `Clc1cccc(-c2csc3nnc(-c4cnc5ccccc5n4)n23)c1` [Compound 5, 5-(3-chlorophenyl)-3(Quinoxalin-2yl)thiazolo[2,3-c][1,2,4]triazole], the “thymidine phosphorylase inhibition” value is “outstanding inhibition”.
Same read-out and setting: as for `Clc1ccc(-c2csc3nnc(-c4cnc5ccccc5n4)n23)cc1` [Compound 6, 5-(4-chlorophenyl)-3(Quinoxalin-2yl)thiazolo[2,3-c][1,2,4]triazole], the entry is “outstanding inhibition”.
The same measure, in the same setting: with `O=[N+]([O-])c1ccccc1-c1csc2nnc(-c3cnc4ccccc4n3)n12` [Compound 7, 5-(2-nitrophenyl)-3(Quinoxalin-2yl)thiazolo[2,3-c][1,2,4]triazole] the entry was “outstanding inhibition”; with `O=[N+]([O-])c1ccc(-c2csc3nnc(-c4cnc5ccccc5n4)n23)cc1` [Compound 8, 5-(4-nitrophenyl)-3(Quinoxalin-2yl)thiazolo[2,3-c][1,2,4]triazole], “moderate inhibition”; with `Cc1ccccc1-c1csc2nnc(-c3cnc4ccccc4n3)n12` [Compound 9, 3-(quinoxalin-2-yl)-5-o-tolylthiazolo[2,3-c][1,2,4]triazole], “moderate inhibition”.
The same measure, in the same setting: with `Cc1cccc(-c2csc3nnc(-c4cnc5ccccc5n4)n23)c1` [Compound 10, 3-(quinoxalin-2-yl)-5-m-tolylthiazolo[2,3-c][1,2,4]triazole] the entry was “inactive”; with `Cc1ccc(-c2csc3nnc(-c4cnc5ccccc5n4)n23)cc1` [Compound 11, 3-(quinoxalin-2-yl)-5-p-tolylthiazolo[2,3-c][1,2,4]triazole], “inactive”; with `Oc1cccc(-c2csc3nnc(-c4cnc5ccccc5n4)n23)c1` [Compound 12, 3-(3-(quinoxalin-2-yl)thiazolo[2,3-c][1,2,4]triazol-5-yl)phenol], “outstanding inhibition”.
Take `Oc1ccc(-c2csc3nnc(-c4cnc5ccccc5n4)n23)cc1` [Compound 13, 4-(3-(quinoxalin-2-yl)thiazolo[2,3-c][1,2,4]triazol-5-yl)phenol]: the “thymidine phosphorylase inhibition” value is on record as “outstanding inhibition”.
`Oc1ccc(-c2csc3nnc(-c4cnc5ccccc5n4)n23)c(O)c1` [Compound 14, 4-(3-(quinoxalin-2-yl)thiazolo[2,3-c][1,2,4]triazol-5-yl)benzene-1,3-diol]: the “thymidine phosphorylase inhibition” value is “outstanding inhibition”.
As for `Oc1ccc(O)c(-c2csc3nnc(-c4cnc5ccccc5n4)n23)c1` [Compound 15, 2-(3-(quinoxalin-2-yl)thiazolo[2,3-c][1,2,4]triazol-5-yl)benzene-1,4-diol], the “thymidine phosphorylase inhibition” value is on record as “outstanding inhibition”.
Same read-out and setting: with `Oc1ccc(-c2csc3nnc(-c4cnc5ccccc5n4)n23)cc1O` [Compound 16, 4-(3-(quinoxalin-2-yl)thiazolo[2,3-c][1,2,4]triazol-5-yl)benzene-1,2-diol] the entry was “outstanding inhibition”; with `COc1ccc(-c2csc3nnc(-c4cnc5ccccc5n4)n23)c(O)c1` [Compound 17, 5-methoxy-2-(3-(quinoxalin-2-yl)thiazolo[2,3-c][1,2,4]triazol-5-yl)phenol], “outstanding inhibition”; with `COc1ccc(-c2csc3nnc(-c4cnc5ccccc5n4)n23)cc1O` [Compound 18, 2-methoxy-5-(3-(quinoxalin-2-yl)thiazolo[2,3-c][1,2,4]triazol-5-yl)phenol], “outstanding inhibition”.
On the same count and under the same terms, with `COc1cccc(-c2csc3nnc(-c4cnc5ccccc5n4)n23)c1` [Compound 19, 5-(3-methoxyphenyl)-3-(quinoxalin-2-yl)thiazolo[2,3-c][1,2,4]triazole] the entry was “inactive”; with `COc1ccc(-c2csc3nnc(-c4cnc5ccccc5n4)n23)cc1` [Compound 20, 5-(4-methoxyphenyl)-3-(quinoxalin-2-yl)thiazolo[2,3-c][1,2,4]triazole], “inactive”; with `COc1ccc(O)c(-c2csc3nnc(-c4cnc5ccccc5n4)n23)c1` [Compound 21, 4-methoxy-2-(3-(quinoxalin-2-yl)thiazolo[2,3-c][1,2,4]triazol-5-yl)phenol], “outstanding inhibition”.
On the same count and under the same terms, as for `c1cncc(-c2csc3nnc(-c4cnc5ccccc5n4)n23)c1` [Compound 22, 5-(pyridin-3-yl)-3-(quinoxalin-2-yl)thiazolo[2,3-c][1,2,4]triazole], the entry is “inactive”; as for `c1ccc2nc(-c3nnc4scc(-c5ccncc5)n34)cnc2c1` [Compound 23, 5-(pyridin-4-yl)-3-(quinoxalin-2-yl)thiazolo[2,3-c][1,2,4]triazole], “inactive”.
As to `Oc1ccccc1-c1csc2nnc(-c3cnc4ccccc4n3)n12` [Compound 24, 2-(3-(quinoxalin-2-yl)thiazolo[2,3-c][1,2,4]triazol-5-yl)phenol], the “thymidine phosphorylase inhibition” value is listed as “outstanding inhibition”.
